Values after ≈ are worked out from the molar mass of the structure shown.
assay: Antitubercular activity against Mycobacterium tuberculosis H37Ra ATCC 25177 after 21 days by agar dilution method; type: functional; conditions: ATCC 25177, 504 h

Compound	MIC
COc1ccc(-n2c(-c3ccc(C)cc3)cc(CN3CCSCC3)c2C)cc1	1 µg/mL (≈ 2.55 µM)
CCc1ccc(-c2cc(CN3CCSCC3)c(C)n2-c2ccc(OC)cc2)cc1	0.5 µg/mL (≈ 1.23 µM)
CSc1ccc(-n2c(-c3ccc(C)cc3)cc(CN3CCSCC3)c2C)cc1	1 µg/mL (≈ 2.45 µM)
CSc1ccccc1-n1c(-c2ccc(F)cc2)cc(CN2CCSCC2)c1C	8 µg/mL (≈ 19.4 µM)
CSc1ccc(-c2cc(CN3CCSCC3)c(C)n2-c2ccc(F)cc2)cc1	< 0.125 µg/mL
Cc1nn(-c2ccc(Cl)cc2)c(O)c1C(=O)c1ccccc1	25 µg/mL (≈ 79.9 µM)
O=S(=O)(Nc1nc2ccccc2[nH]1)c1ccc(Cl)cc1	32 µg/mL (≈ 104 µM)
Cc1nn(-c2ccccc2)c(O)c1C(=O)c1ccc([N+](=O)[O-])cc1	> 100 µg/mL
CC(C)c1[nH]n(-c2ccc(Cl)cc2)c(=O)c1C(=O)c1ccc(Cl)cc1	32 µg/mL (≈ 85.3 µM)
Cc1[nH]n(-c2ccc(Br)cc2)c(=O)c1C(=O)c1ccc(Cl)cc1	4 µg/mL (≈ 10.2 µM)
O=C(c1ccc(Cl)cc1)c1c(C(F)(F)F)[nH]n(-c2ccc(Cl)cc2)c1=O	> 64 µg/mL
CC(C)c1[nH]n(-c2ccccc2)c(=O)c1C(=O)c1ccc(Cl)cc1	64 µg/mL (≈ 188 µM)
Cc1[nH]n(-c2ccc(F)cc2)c(=O)c1C(=O)c1ccc(Cl)cc1	12.5 µg/mL (≈ 37.8 µM)
Cc1[nH]n(-c2ccc(Cl)cc2)c(=O)c1C(=O)c1ccc(Cl)cc1	6.25 µg/mL (≈ 18 µM)
O=C(c1ccc(Cl)cc1)c1c(C(F)(F)F)[nH]n(-c2ccccc2)c1=O	> 64 µg/mL
O=C(c1ccc(Cl)cc1)c1c(-c2ccccc2)[nH]n(-c2ccc(Cl)cc2)c1=O	16 µg/mL (≈ 39.1 µM)
Cc1[nH]n(-c2ccccc2)c(=O)c1C(=O)c1cccc(F)c1	25 µg/mL (≈ 84.4 µM)
O=C(O[C@H](Cn1ccnc1)c1ccc(Cl)cc1)N1CCN(c2ccc(Cl)cc2)CC1	16 µg/mL (≈ 35.9 µM)
CC(C)c1ccc(NC(=O)O[C@H](Cn2ccnc2)c2ccc(F)cc2)cc1	16 µg/mL (≈ 43.5 µM)
O=C(NCCCn1ccnc1)O[C@H](Cn1ccnc1)c1ccc(F)cc1	32 µg/mL (≈ 89.5 µM)
O=C(Nc1ccc(Sc2ccc([N+](=O)[O-])cc2)cc1)O[C@H](Cn1ccnc1)c1ccc(Cl)cc1	16 µg/mL (≈ 32.3 µM)
Cc1nn2c(=O)c3c([nH]c2c1-c1ccc(Cl)cc1)CCC3	8 µg/mL (≈ 26.7 µM)

Compound	MIC
CCCc1cc(=O)n2nc(C)c(-c3ccc(Cl)cc3)c2[nH]1	8 µg/mL (≈ 26.5 µM)
Cc1cc(=O)n2nc(C)c(-c3ccc(Cl)cc3)c2[nH]1	32 µg/mL (≈ 117 µM)
O=C(O[C@H](Cn1ccnc1)c1ccc(F)cc1)N1CCN(c2ccc([N+](=O)[O-])cc2)CC1	32 µg/mL (≈ 72.8 µM)
Cc1cc(/C=N\OCc2ccccc2)c(C)n1-c1ccc(F)cc1	25 µg/mL (≈ 77.5 µM)
CCC/N=C(\c1ccc(Cl)cc1)c1c(C)nn(-c2ccc(Cl)cc2)c1O	> 100 µg/mL
Clc1cccc(CSc2nnc(-c3ccc(Cl)cc3Cl)o2)c1	32 µg/mL (≈ 86.1 µM)
O=C(O[C@H](Cn1ccnc1)c1ccc(F)cc1)N1CCN(C(=O)c2ccco2)CC1	64 µg/mL (≈ 155 µM)
CCOc1ccc(NC(=O)C(Cc2ccccc2)N2C(=O)c3ccccc3C2=O)cc1 (configuration not stated)	32 µg/mL (≈ 77.2 µM)
CCN(Cc1cc2cc(C)c(C)cc2[nH]c1=O)c1ccc(OC)cc1C	> 64 µg/mL
Cc1cc(/C=N\OCc2cccc(F)c2)c(C)n1-c1ccc(F)cc1	> 100 µg/mL
O=C1NN(c2ccc(Cl)cc2)C(=O)/C1=C/c1ccc(Cl)cc1Cl	32 µg/mL (≈ 87 µM)
O=C(O[C@H](Cn1ccnc1)c1ccc(F)cc1)N1CCN(c2ccc(Cl)c(Cl)c2)CC1	16 µg/mL (≈ 34.5 µM)
O=C(O[C@H](Cn1ccnc1)c1ccc([N+](=O)[O-])cc1)N1CCN(c2ccc(Cl)c(Cl)c2)CC1	16 µg/mL (≈ 32.6 µM)
CCCc1cc(=O)n2nc(C)c(-c3ccc(OC)cc3)c2[nH]1	32 µg/mL (≈ 108 µM)
Cc1cc(/C=N\OCc2ccc(Cl)cc2)c(C)n1-c1ccc(F)cc1	50 µg/mL (≈ 140 µM)
CN1C(=O)C2C(N=C(Oc3ccc(Cl)cc3)N2Cc2cccc(F)c2)N(C)C1=O (configuration not stated)	64 µg/mL (≈ 154 µM)
Cc1nn(-c2ccccc2)c(O)c1C(=O)c1ccc2ccccc2c1	25 µg/mL (≈ 76.1 µM)
O=C(CSc1nc2cc(Cl)ccc2s1)c1ccc(Cl)cc1	32 µg/mL (≈ 90.3 µM)
O=C(O[C@H](Cn1ccnc1)c1cccc2ccccc12)N1CCN(c2ccc(Cl)c(Cl)c2)CC1	16 µg/mL (≈ 32.3 µM)
C=CCN1CC(c2nc3ccccc3n2Cc2cccc(Cl)c2)CC1=O (configuration not stated)	32 µg/mL (≈ 87.5 µM)
COc1ccc(CO/N=C\c2cc(C)n(-c3ccc(F)cc3)c2C)cc1	> 100 µg/mL
Cc1ccc(C2NC(=O)NC(O)(C(F)(F)F)C2C(=O)c2ccc(Cl)cc2)cc1 (configuration not stated)	32 µg/mL (≈ 77.5 µM)

Compound	MIC
O=C1C/C(=N\c2ccc(Cl)cc2)SC1Cc1ccc(Cl)cc1 (configuration not stated)	32 µg/mL (≈ 91.4 µM)
Cc1nn(C(C)CNC(=O)C2(c3ccc(Cl)cc3)CCOCC2)c(C)c1C (configuration not stated)	64 µg/mL (≈ 164 µM)
O=C1S/C(=C\c2ccc(-c3cccc(Cl)c3Cl)o2)C(=O)N1c1ccc(Cl)cc1	64 µg/mL (≈ 142 µM)
O=C(O[C@H](Cn1ccnc1)c1ccccc1)N1CCN(c2ccc(Cl)c(Cl)c2)CC1	16 µg/mL (≈ 35.9 µM)
Cc1nn(-c2ccc(Cl)cc2)c(O)c1/C(=N/C1CC1)c1ccc(Cl)cc1	> 100 µg/mL
C=C(C)Cn1c(S)nnc1CCn1c2ccc(Cl)cc2c2cc(Cl)ccc21	32 µg/mL (≈ 76.7 µM)
COc1ccc(-n2c(-c3ccc(Br)cc3)cc3c2CC(C)(C)CC3=O)c(OC)c1	64 µg/mL (≈ 141 µM)
CCOC(=O)c1cnc2c(Cl)c(Cl)ccc2c1NCc1cccnc1	32 µg/mL (≈ 85.1 µM)
Cc1nn(-c2ccccc2)c(O)c1/C(=N/Cc1ccccc1)c1ccc(Cl)cc1	> 100 µg/mL
CCCOc1ccc2c(c1)sc1ncc(NC(=O)c3ccc(Cl)cc3)c(=O)n12	32 µg/mL (≈ 77.3 µM)
O=C(O[C@H](Cn1ccnc1)c1ccc(Cl)cc1Cl)N1CCN(c2ccc(Cl)c(Cl)c2)CC1	8 µg/mL (≈ 15.6 µM)
O=C(C1=C(O)C(=O)N(c2ccccc2)C1c1ccccc1F)c1ccc(Cl)cc1 (configuration not stated)	32 µg/mL (≈ 78.5 µM)
C=CCn1cnc2sc(C)c(-c3ccc(Cl)cc3)c2c1=O	32 µg/mL (≈ 101 µM)
O=C(O[C@H](Cn1ccnc1)c1ccc(Cl)cc1)N1CCN(C(=O)c2ccco2)CC1	64 µg/mL (≈ 149 µM)
Cc1nn(-c2ccccc2)c(O)c1C(=O)c1cccs1	50 µg/mL (≈ 176 µM)
Cc1nn(-c2ccccc2)c(O)c1C(=O)/C=C/c1ccccc1	50 µg/mL (≈ 164 µM)
Cc1nn(C(=O)c2cccc([N+](=O)[O-])c2)c(C)c1Sc1ccc(Cl)cc1	32 µg/mL (≈ 82.5 µM)
O=C(O[C@H](Cn1ccnc1)c1ccc(-c2ccccc2)cc1)N1CCN(c2ccc(Cl)c(Cl)c2)CC1	16 µg/mL (≈ 30.7 µM)
Clc1ccc(C2=CSC3=NN=C(SCc4ccccn4)C23)cc1 (configuration not stated)	64 µg/mL (≈ 179 µM)
Cc1cc(/C=N\OCc2ccc([N+](=O)[O-])cc2)c(C)n1-c1ccc(F)cc1	> 100 µg/mL
Cc1nn(-c2ccccc2)c(O)c1C(=O)c1cccnc1	> 100 µg/mL
Cc1nn(-c2ccc(Cl)cc2)c(O)c1/C(=N/OCc1ccccc1)c1ccc(Cl)cc1	> 100 µg/mL

Compound	MIC
Cc1ccc(-n2c(C)cc(/C=N\OCc3ccccc3)c2C)cc1	> 100 µg/mL
COCc1cc(=O)n2nc(C)c(-c3ccccc3OC)c2[nH]1	32 µg/mL (≈ 107 µM)
CN(C(=O)c1cccc(Cl)c1)c1nc(-c2ccccc2)cs1	64 µg/mL (≈ 195 µM)
COC(=O)C1=C(C)N(Cc2ccc(C)cc2)C(=O)/C1=C\c1ccc(C)cc1OC	32 µg/mL (≈ 81.7 µM)
COc1ccc(-n2c(SC)nnc2-c2ccc(Cl)cc2)c(OC)c1	32 µg/mL (≈ 88.4 µM)
Cc1nn(-c2ccc(F)cc2)c(OC(=O)c2ccccc2)c1C(=O)c1ccccc1	25 µg/mL (≈ 62.4 µM)
CNCCC/C(=C1\C(=O)N(c2ccc(Cl)cc2)N=C1C)c1ccc(Cl)cc1	64 µg/mL (≈ 159 µM)
CO/N=C(\c1ccc(Cl)cc1)c1c(C)nn(-c2ccc(Cl)cc2)c1O	25 µg/mL (≈ 66.4 µM)
CO/N=C(\c1ccc(Cl)cc1)c1c(C)nn(-c2ccccc2)c1O	25 µg/mL (≈ 73.1 µM)
CC1=NN(c2ccc(Cl)cc2)C(=O)/C1=C\N1CCNCC1C(=O)c1ccco1 (configuration not stated)	32 µg/mL (≈ 80.2 µM)
Cc1ccccc1C(=O)c1c(C)nn(-c2ccccc2)c1O	50 µg/mL (≈ 171 µM)
O=C(O[C@H](Cn1ccnc1)c1ccc(F)cc1)N1CCN(c2ccc(Cl)cc2)CC1	16 µg/mL (≈ 37.3 µM)
COc1ccc(C(CNS(=O)(=O)N2CCCC2)c2c[nH]c3ccccc23)cc1 (configuration not stated)	32 µg/mL (≈ 80.1 µM)
O=C(Cc1noc(-c2ccncc2)n1)Nc1cc(Cl)cc(Cl)c1	32 µg/mL (≈ 91.6 µM)
Cc1nn(-c2ccccc2)c(O)c1/C(=N/OCc1ccccc1)c1ccc(Cl)cc1	> 100 µg/mL
Cc1cc(/C=N\OCc2ccccc2)c(C)n1-c1ccccc1	> 100 µg/mL
Cc1ccc(C(=O)Oc2c(C(=O)c3ccc(C)cc3)c(C)nn2-c2ccccc2)cc1	> 100 µg/mL
O=C(O[C@H](Cn1ccnc1)c1ccc(Cl)cc1)c1cccc(C(F)(F)F)c1	16 µg/mL (≈ 40.5 µM)
Cc1ncc(-c2cc(=O)n3nc(C)c(-c4ccc(Cl)cc4)c3[nH]2)c(C)n1	2 µg/mL (≈ 5.47 µM)
C/C(=N\OC(=O)COc1ccc(Cl)cc1Cl)c1ccc(Br)cc1	32 µg/mL (≈ 76.7 µM)
Cc1ccc(-n2nc(C)c(C(=O)c3ccc(Cl)cc3)c2O)cc1	16 µg/mL (≈ 49 µM)
Cc1c(C(=O)c2ccc(Cl)cc2)c(=O)n(-c2ccc(Cl)cc2)n1Cc1ccc(F)cc1	32 µg/mL (≈ 70.3 µM)

Compound	MIC
Cc1c(C(=O)c2ccc(Cl)cc2)c(=O)n(-c2ccc(Cl)cc2)n1Cc1ccccc1	16 µg/mL (≈ 36.6 µM)
Cc1c(C(=O)c2ccc(Cl)cc2)c(=O)n(-c2ccccc2)n1Cc1ccc(F)cc1	32 µg/mL (≈ 76 µM)
Cc1c(C(=O)c2ccc(Cl)cc2)c(=O)n(-c2ccc(Cl)cc2)n1Cc1ccc([N+](=O)[O-])cc1	32 µg/mL (≈ 66.3 µM)
COCc1cc(=O)n2nc(C)c(-c3ccc(Cl)cc3)c2[nH]1	16 µg/mL (≈ 52.7 µM)
Cc1c(C(=O)c2ccc(Cl)cc2)c(=O)n(-c2ccccc2)n1Cc1ccc([N+](=O)[O-])cc1	> 32 µg/mL
Cc1nn(-c2ccccc2)c(O)c1C(=O)c1ccc(Cl)cc1	6.25 µg/mL (≈ 20 µM)
Cc1c(C(=O)c2ccc(Cl)cc2)c(=O)n(-c2ccccc2)n1Cc1ccccc1	> 64 µg/mL
CC1=NN(c2ccc(Cl)cc2)C(=O)/C1=C\N(C)C	> 64 µg/mL
CC1=NN(c2ccc(Cl)cc2)C(=O)/C1=C\N1CCN(c2ccccc2)CC1	64 µg/mL (≈ 168 µM)
CC(=O)N1CCN(/C=C2\C(=O)N(c3ccc(Cl)cc3)N=C2C)CC1	64 µg/mL (≈ 185 µM)
CC1=NN(c2ccc(Cl)cc2)C(=O)/C1=C\N1CCN(CCO)CC1	64 µg/mL (≈ 183 µM)
CC1=NN(c2ccc(Cl)cc2)C(=O)/C1=C\Nc1ccccc1	64 µg/mL (≈ 205 µM)
CCc1c(CN2CCSCC2)cc(-c2ccc(F)cc2)n1-c1ccccc1F	2 µg/mL (≈ 5.02 µM)
CCc1c(CN2CCSCC2)cc(-c2ccccc2F)n1-c1ccccc1F	4 µg/mL (≈ 10 µM)
CC1=NN(c2ccc(Cl)cc2)C(=O)/C1=C\N1CCOCC1	64 µg/mL (≈ 209 µM)
CCc1c(CN2CCSCC2)cc(-c2ccccc2)n1-c1ccccc1	2 µg/mL (≈ 5.52 µM)
CCc1c(CN2CCN(C)CC2)cc(-c2ccc(Cl)cc2)n1-c1ccc(Cl)cc1	2 µg/mL (≈ 4.67 µM)
CCc1c(CN2CCSCC2)cc(-c2ccccc2)n1-c1ccc(F)cc1	2 µg/mL (≈ 5.26 µM)
CC1=NN(c2ccc(Cl)cc2)C(=O)/C1=C\N1CCN(C)CC1	64 µg/mL (≈ 201 µM)

— ChEMBL document CHEMBL3856210, “Discovery of in vitro antitubercular agents through in silico ligand-based approaches” (Eur J Med Chem, 2016)
